The values that follow come from patent US8415469B2, “Compounds and methods for kinase modulation, and indications therefor” (Plexxikon Inc., priority 2005, dated 2013).

For orientation: IC50 means the midpoint of a concentration-inhibition curve.

SMILES strings stand for the structures.

Holding throughout (format): biochemical
The target of one assay is T1, p38 (Homo sapiens, UniProt Q16539).
T1 construct: P4292.pET15S P38A M1-S360-X MKK6DD; His6 with thrombin site (N); made in house
Put plainly: AlphaScreen kinase assay, p38. To be noted: read-out: IC50, activity toward kinase p38. In general terms: Bead proximity is the source of the signal in Alpha formats.

The target of another assay is T2, Pim1 (Homo sapiens, UniProt P11309).
T2 construct: P1215.pET29SRI PIM1 E29-K313 HIS WT; made in house
T2 sequence (P11309 with tags, fused parts or gaps): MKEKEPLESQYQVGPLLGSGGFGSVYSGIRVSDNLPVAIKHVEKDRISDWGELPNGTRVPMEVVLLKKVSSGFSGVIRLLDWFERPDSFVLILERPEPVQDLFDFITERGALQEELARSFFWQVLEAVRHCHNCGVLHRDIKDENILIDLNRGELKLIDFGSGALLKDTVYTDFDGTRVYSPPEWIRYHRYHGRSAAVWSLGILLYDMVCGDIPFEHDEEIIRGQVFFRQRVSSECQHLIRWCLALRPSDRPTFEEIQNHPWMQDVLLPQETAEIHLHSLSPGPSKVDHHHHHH
Nature of the assay: AlphaScreen kinase assay, Pim1. The following applies: read-out: IC50, activity toward kinase Pim1. From the text: (§1) AlphaScreen assay was used to screen additional kinases. The assay is similarly dependent on the phosphorylation of a peptide substrate. In this assay, an antibody that recognizes phosphorylated substrate is bound to an acceptor bead. The peptide substrate is attached to biotin, which binds to a donor head that contains streptavidin. Thus phosphorylated substrate is bound by antibody and streptavidin, bringing the donor and acceptor heads into close proximity when kinase is not inhibited. The donor produces singlet oxygen which results in emission from the acceptor when they are in close proximity. Conversely, when kinase is inhibited, the donor and acceptor beads are not associated and the emission from the acceptor is reduced.
(§2) AlphaScreen assays were done using compounds dissolved in DMSO to a concentration of 20 mM. The compounds were diluted accordingly to the desired final concentrations in each sample well, using 1:3 serial dilution for a total of 8 concentration points.

The target in another assay is T3, PDGFRB (Homo sapiens, UniProt P09619).
T3 construct: purchased Invitrogen (Carlsbad, Calif.), screening service
T3 sequence (P09619 33-1106): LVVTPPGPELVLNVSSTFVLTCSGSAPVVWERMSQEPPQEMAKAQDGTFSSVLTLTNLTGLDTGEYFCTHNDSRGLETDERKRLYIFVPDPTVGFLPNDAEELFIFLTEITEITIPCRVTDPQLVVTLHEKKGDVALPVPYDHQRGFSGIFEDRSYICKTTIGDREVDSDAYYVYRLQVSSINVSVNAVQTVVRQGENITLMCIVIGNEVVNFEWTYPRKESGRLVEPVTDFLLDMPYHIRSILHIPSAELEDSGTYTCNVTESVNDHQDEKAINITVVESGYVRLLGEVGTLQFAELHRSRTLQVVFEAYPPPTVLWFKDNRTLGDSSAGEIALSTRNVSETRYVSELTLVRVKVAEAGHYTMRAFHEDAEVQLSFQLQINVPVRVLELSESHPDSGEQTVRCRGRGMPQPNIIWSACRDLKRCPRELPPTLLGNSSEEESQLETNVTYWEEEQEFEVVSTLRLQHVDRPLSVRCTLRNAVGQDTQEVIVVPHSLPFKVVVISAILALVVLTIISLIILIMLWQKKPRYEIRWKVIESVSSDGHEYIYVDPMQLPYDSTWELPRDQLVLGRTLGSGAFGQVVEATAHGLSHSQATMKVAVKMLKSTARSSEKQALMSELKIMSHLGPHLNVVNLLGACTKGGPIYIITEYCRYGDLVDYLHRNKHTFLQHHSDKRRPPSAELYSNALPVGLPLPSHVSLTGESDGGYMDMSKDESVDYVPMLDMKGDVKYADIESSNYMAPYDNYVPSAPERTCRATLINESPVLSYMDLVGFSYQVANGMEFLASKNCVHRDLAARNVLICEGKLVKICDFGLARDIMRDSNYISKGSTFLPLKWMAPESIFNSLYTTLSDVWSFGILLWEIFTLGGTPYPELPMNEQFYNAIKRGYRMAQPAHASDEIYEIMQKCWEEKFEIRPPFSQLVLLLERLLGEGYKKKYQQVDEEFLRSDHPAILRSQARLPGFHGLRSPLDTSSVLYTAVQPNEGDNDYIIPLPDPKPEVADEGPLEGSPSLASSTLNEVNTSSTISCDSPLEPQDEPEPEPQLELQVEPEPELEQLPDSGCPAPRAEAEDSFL
Put plainly: Z'-Lyte FRET kinase assay (Invitrogen), PDGFRB. To be noted: read-out: IC50, activity toward kinase PDGFRB. From the text: The effect of potential modulators of kinase activity can be measured in a variety of different assays known in the art. For example, direct radiometric, indirect FRET or AlphaScreen assays may be used to assess the level of phosphorylation of a substrate in the presence of test compounds in order to determine the inhibitory affect of the compound on the kinase. Invitrogen (Carlsbad, Calif.) uses a FRET based assay for Btk, EGFR, EphB2, Flt3, lrak4, Kdr, MAP2K1, MAPKAPK2, PDGFRB, PKC theta, Stk6 and Yes. For these assays, compounds of the invention were screened by Invitrogen using Z′-Lyte™ kinase assay.
Briefly, the Invitrogen kinase assay involves use of a specific peptide substrate optimized for each kinase, containing a fluorophore at each end that make up the FRET pair. The peptide sensitivity to proteolytic cleavage depends on phosphorylation of the peptide. […] The extent of phosphorylation is determined from the emission ratio, which is low when the kinase is active (phosphorylated peptide is not cleaved, FRET pair connected) or higher for inhibited kinase (non-phosphorylated peptide is cleaved, FRET pair separated). […] Reaction conditions for each kinase are determined to provide optimal reaction times, incubation temperature, kinase and ATP concentrations. […] The fluorescence signals are measured to determine the emission ratio.

A further assay addresses EphB4 (Homo sapiens, UniProt P54760). Nature of the assay: AlphaScreen kinase assay, EphB4. The following applies: read-out: IC50, activity toward kinase EphB4.
Description: as §1, §2

The target in the next assay is TrkA (Homo sapiens, UniProt P04629). Put plainly: AlphaScreen kinase assay, TrkA. To be noted: read-out: IC50, activity toward kinase TrkA.
TrkA, sequence (P04629 33-796): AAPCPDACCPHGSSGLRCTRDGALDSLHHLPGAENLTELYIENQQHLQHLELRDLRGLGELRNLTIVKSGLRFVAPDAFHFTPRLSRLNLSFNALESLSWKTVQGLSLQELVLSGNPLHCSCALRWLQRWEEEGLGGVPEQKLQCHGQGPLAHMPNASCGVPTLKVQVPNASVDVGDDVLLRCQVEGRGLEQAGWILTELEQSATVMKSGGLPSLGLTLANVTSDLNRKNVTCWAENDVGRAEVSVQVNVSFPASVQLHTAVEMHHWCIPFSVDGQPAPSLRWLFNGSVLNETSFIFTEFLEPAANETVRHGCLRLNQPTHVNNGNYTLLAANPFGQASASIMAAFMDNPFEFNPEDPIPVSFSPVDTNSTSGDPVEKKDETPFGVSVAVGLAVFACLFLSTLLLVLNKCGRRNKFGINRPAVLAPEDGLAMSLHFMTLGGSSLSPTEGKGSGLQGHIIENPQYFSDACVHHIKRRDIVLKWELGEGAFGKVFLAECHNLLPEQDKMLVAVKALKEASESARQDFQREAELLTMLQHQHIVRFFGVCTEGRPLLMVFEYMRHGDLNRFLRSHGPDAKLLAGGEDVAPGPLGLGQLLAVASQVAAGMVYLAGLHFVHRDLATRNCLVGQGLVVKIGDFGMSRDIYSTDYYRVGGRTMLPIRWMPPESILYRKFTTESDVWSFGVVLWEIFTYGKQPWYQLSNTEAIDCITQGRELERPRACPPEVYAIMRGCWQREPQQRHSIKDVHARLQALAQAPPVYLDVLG
Description: as §1, §2

A further assay deals with MLK1 (Homo sapiens, UniProt P80192). Put plainly: AlphaScreen kinase assay, MLK1. The following applies: read-out: IC50, activity toward kinase MLK1.
MLK1, sequence (P80192 whole entry): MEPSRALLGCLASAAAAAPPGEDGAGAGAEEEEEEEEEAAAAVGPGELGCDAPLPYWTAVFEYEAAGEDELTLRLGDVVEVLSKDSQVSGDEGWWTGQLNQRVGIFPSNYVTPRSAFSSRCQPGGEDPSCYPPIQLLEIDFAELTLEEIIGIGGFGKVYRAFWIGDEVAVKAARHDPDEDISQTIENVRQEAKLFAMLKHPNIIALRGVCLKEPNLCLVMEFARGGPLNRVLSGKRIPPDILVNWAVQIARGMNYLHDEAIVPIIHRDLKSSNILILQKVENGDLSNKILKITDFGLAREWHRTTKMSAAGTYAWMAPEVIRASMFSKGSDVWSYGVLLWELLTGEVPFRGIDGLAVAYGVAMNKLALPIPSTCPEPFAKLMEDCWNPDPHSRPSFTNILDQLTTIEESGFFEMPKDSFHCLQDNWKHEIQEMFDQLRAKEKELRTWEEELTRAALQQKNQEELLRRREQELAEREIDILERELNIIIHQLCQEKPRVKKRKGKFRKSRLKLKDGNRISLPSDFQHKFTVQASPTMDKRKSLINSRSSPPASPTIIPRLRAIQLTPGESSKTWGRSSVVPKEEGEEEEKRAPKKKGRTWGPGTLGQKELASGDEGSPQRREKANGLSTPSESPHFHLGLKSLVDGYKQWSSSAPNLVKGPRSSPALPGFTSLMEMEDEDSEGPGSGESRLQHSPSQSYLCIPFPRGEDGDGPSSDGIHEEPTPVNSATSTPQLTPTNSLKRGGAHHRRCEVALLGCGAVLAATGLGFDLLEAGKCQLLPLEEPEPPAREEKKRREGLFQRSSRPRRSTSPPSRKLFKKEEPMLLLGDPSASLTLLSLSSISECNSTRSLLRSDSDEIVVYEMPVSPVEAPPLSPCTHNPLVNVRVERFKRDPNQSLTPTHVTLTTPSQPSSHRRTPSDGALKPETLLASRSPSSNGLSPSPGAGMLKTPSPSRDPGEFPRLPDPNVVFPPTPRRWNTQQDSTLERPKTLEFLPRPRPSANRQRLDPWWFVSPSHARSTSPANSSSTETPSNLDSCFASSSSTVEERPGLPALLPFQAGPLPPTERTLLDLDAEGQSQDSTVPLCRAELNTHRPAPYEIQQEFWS
Description: as §1, §2

The next assay addresses EphA2 (Homo sapiens, UniProt P29317). Nature of the assay: AlphaScreen kinase assay, EphA2. To be noted: read-out: IC50, activity toward kinase EphA2.
Description: as §1, §2

EphB4, sequence (P54760 16-987): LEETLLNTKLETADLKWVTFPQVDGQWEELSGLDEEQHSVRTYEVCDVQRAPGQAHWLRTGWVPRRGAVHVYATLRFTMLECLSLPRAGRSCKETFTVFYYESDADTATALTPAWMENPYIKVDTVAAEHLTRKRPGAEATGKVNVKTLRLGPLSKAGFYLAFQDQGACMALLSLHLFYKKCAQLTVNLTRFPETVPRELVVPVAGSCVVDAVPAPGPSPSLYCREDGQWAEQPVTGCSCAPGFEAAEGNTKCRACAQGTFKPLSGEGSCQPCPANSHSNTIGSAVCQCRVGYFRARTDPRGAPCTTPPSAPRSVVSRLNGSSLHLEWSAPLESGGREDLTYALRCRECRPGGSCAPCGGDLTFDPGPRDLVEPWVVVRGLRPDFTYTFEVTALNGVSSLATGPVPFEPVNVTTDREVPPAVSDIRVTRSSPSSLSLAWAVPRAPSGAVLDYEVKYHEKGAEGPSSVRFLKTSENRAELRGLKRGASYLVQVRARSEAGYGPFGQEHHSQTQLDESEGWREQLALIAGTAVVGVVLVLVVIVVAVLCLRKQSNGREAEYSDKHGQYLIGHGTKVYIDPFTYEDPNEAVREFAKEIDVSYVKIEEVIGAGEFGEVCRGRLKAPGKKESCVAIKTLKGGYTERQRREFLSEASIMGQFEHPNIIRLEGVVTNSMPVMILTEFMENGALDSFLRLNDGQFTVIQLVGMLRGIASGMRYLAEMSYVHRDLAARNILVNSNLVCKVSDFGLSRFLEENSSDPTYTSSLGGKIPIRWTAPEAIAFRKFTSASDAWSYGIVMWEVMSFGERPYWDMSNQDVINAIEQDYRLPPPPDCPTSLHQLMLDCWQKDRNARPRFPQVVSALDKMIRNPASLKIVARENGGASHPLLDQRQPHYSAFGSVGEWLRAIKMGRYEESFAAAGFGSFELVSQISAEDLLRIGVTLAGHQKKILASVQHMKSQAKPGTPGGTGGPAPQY
T1 sequence (Q16539 with tags, fused parts or gaps): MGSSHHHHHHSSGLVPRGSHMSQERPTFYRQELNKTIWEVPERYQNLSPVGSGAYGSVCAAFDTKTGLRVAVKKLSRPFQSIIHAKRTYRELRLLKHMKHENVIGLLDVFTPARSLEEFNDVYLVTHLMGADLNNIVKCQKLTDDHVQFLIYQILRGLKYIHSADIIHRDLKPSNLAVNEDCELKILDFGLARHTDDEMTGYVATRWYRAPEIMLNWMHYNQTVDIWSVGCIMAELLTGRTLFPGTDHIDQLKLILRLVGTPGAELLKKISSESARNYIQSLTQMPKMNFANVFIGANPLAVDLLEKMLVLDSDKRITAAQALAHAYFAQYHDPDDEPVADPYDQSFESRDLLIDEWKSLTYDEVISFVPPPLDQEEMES
Description for p38: AlphaScreen assays were done using compounds dissolved in DMSO to a concentration of 20 mM. The compounds were diluted accordingly to the desired final concentrations in each sample well, using 1:3 serial dilution for a total of 8 concentration points. Plates were prepared such that each kinase reaction is 20 μl in 1× kinase buffer, 5% DMSO and 10 μM ATP. After incubation of the kinase reaction for 1 hour at room temperature, 5 μl of donor beads in stop buffer (50 mM EDTA in 1× kinase buffer) was added, the sample was mixed and incubated for 20 minutes at room temperature before adding 5 μl of acceptor beads in stop buffer. The samples were incubated for 60 minutes at room temperature and the signal per well was read on AlphaQuest reader.

Turning to `O=C(O)/C=C/c1cccc(-c2cnc3[nH]cc(C(=O)c4cc(O)ccc4F)c3c2)c1` [Compound P-0010], the IC50 on p38 was ≤ 10 µM.
`O=C(c1ccc(O)cc1)c1c[nH]c2ncc(-c3cccs3)cc12` [Compound P-0024, (4-Hydroxy-phenyl)-(5-thiophen-2-yl-1H-pyrrolo[2,3-b]pyridin-3-yl)-methanone]: the IC50 at Pim1 was ≤ 10 µM.
For `CCCS(=O)(=O)Nc1ccc(F)c(C(=O)c2c[nH]c3ncc(-c4cccnc4)cc23)c1F` [Compound P-0088, Propane-1-sulfonic acid [2,4-difluoro-3-(5-pyridin-3-yl-1H-pyrrolo[2,3-b]pyridine-3-carbonyl)-phenyl]-amide], the IC50 on PDGFRB is ≤ 10 µM.
For the molecule `COc1ccc(F)c(C(=O)c2c[nH]c3ncc(-c4cccnc4)cc23)c1` [Compound P-0090], the IC50 on Pim1 was ≤ 10 µM.
On to `O=C(Nc1ccc(Cc2c[nH]c3ncccc23)cc1)Nc1cccc(C(F)(F)F)c1` [Compound P-0262, 1-[4-(1H-Pyrrolo[2,3-b]pyridin-3-ylmethyl)-phenyl]-3-(3-trifluoromethyl-phenyl)-urea], for which, at PDGFRB, the IC50 was ≤ 10 µM.
`CCCS(=O)(=O)Nc1ccc(F)c(C(=O)c2c[nH]c3ncc(OC)cc23)c1F` [Compound P-0806, Propane-1-sulfonic acid [2,4-difluoro-3-(5-methoxy-1H-pyrrolo[2,3-b]pyridine-3-carbonyl)-phenyl]-amide]: the concentration for half-maximal inhibition (IC50) on EphB4 and on TrkA was ≤ 10 µM throughout.
As to `COc1cccc(C(=O)c2c[nH]c3ncc(-c4cccc(NC(C)=O)c4)cc23)c1F` [Compound P-1336, N-{3-[3-(2-Fluoro-3-methoxy-benzoyl)-1H-pyrrolo[2,3-b]pyridin-5-yl]-phenyl}-acetamide], the IC50 on MLK1, on EphB4 and at EphA2 was ≤ 10 µM throughout.
With `OCCOc1ccc(F)c(Cc2c[nH]c3ncc(-c4cccnc4)cc23)c1F` [Compound P-1394, 2-[2,4-Difluoro-3-(5-pyridin-3-yl-1H-pyrrolo[2,3-b]pyridin-3-ylmethyl)-phenoxy]-ethanol], at EphA2, the IC50 was ≤ 10 µM.
As for `COc1cc(OC)cc(C(=O)c2c[nH]c3ncc(-c4cccc(NS(C)(=O)=O)c4)cc23)c1` [Compound P-1426, N-{3-[3-(3,5-Dimethoxy-benzoyl)-1H-pyrrolo[2,3-b]pyridin-5-yl]-phenyl}-methanesulfonamide], the IC50 on MLK1 and on TrkA was ≤ 10 µM throughout.
